The text below walks through data of patent publication US20180118721A1, “PYRIMIDINE DERIVATIVES” (Merck Patent GmbH, priority 2015, published 2018).

The structures appear in SMILES notation.

Assay [1] concerns the target T1, purified human recombinant MTH1 (human MTH1, residues 42-197) (Homo sapiens, UniProt P36639).
T1 construct: human MTH1, residues 42-197, Uniprot-ID: P36639, expressed in E. coli; made in house; host or cells: E. coli
Description: MTH1 enzymatic assay (luminescence-based, PPiLight). In kind it is biochemical. To be noted: 6 μM 8-oxo-dGTP, Table 1, grouped. Here is the method: The IC50 value was determined by a MTH1 enzymatic assay. The assay comprises the principal steps of incubating a mixture of MTH1, the compound in question at different concentrations and 8-oxo-2′-deoxyguanosine-5′-triphosphate (8-oxo-dGTP) in assay buffer. Nucleotide triphosphate hydrolysis by MTH1, i.e. decomposition of 8-oxo-2′-deoxyguanosine-5′-triphosphate, produces 8-oxo-2′-deoxyguanosine-5′-monophosphate (8-oxo-dGMP) and pyrophosphate (PPi). The amount of generated pyrophosphate (PPi) is then measured by a bioluminescent reaction. In detail: The MTH1 (human mutT homologue 1) enzymatic assay is performed as a luminescence-based 384-well assay. […] The assay buffer contains 100 mM Tris-acetate pH 7.5, 40 mM NaCl, 10 mM Mg(OAc)2, 0.005% Tween 20 and 2 mM dithiothreitol (DTT). […] Then, in a second step, the substrate 8-oxo-dGTP is added and the reaction mixture is incubated for 30 minutes at 22° C. The pharmacologically relevant assay volume is 5 PI. The final concentrations in the assay during incubation of the reaction mixture are 0.1-0.2 nM, typically 0.1 nM, MTH1 and 6 μM 8-oxo-dGTP. After incubation of the reaction mixture, the generation of pyrophosphate (PPi) as a result of nucleotide triphosphate (8-oxo-dGTP) hydrolysis by MTH1 is detected using the PPiLight inorganic pyrophosphate assay kit (Lonza) (third step). 2 to 5 μl, such as 3 to 5 μl, typically 3 or 4 μl, for instance 4 μl, of a 1:1 mixture of PPiLight converting reagent (AMP) and PPiLight detection reagent are added to the reaction mixture. In the presence of pyrophosphate, the detection reagent catalyzes the conversion of AMP to ATP. Luciferase then produces light from the newly formed ATP and luciferin. The amount of light produced is directly proportional to the amount of PPi in the sample. Following signal development for 1 h the plates are analysed in an EnVision (PerkinElmer) microplate reader using the ultra sensitive luminescence option. Data are processed employing the Genedata Screener software. In particular, IC50 values are determined in the usual manner (using the Hill Equation) by fitting a dose-response curve to the data points using nonlinear regression analysis.
Hill Equation: Y=S0+(Sinf−S0)/(1+(10^logIC50/10^c)^n); Y: luminescence signal (response), S0: activity level at zero concentration of test compound, Sinf=activity level at infinite concentration, Hill coefficient n=measure of the slope at IC50, c=concentration in logarithmic units corresponding to the values on the x-axis of the dose response curve plot

For assay [2], the target named is T2, humanMTH1 (aminoacids 42 to 197) (Homo sapiens, UniProt P36639).
T2 construct: humanMTH1 (aminoacids 42 to 197); His tag at the N-terminus; purchased Abnova ab99390; host or cells: E. coli
Briefly: Binding affinities and kinetics on MTH1 surfaces by surface plasmon resonance (SPR). To be noted: for Kd: SPR, Biacore4000, 25° C., Table 1, grouped, read-out: KD IC50; for residence time: on MTH1, calculated on the basis of the KD values, read-out: Residence time. As for the experimental part: The SPR experiments were performed using a Biacore4000 instrument. […] HumanMTH1 was immobilized on Biacore CM5 chips at 25° C. and a flow rate of 10 μL/min using amine coupling at pH 5.5 and in presence of 1 μM MSC2567771B-1 according to Biacore's standard protocol. MTH1 was applied at a concentration of 10 μg/mL and depending on the duration of the injection time immobilization levels between 500 and 2,000 RU were obtained. Sample compounds were applied in form of titration series with a doubling of concentration at each subsequent injection. In general, 10 concentrations were injected covering a dilution range of 500 fold. Before and after each of these titration series the binding capability of the surface was controlled by the injection of the positive control S-Crizotinib at a fixed concentration of 2 μM. Kinetic titration experiments were performed at 25° C. with a flow rate of 30 μL/min, a sample contact time of 90 sec and a dissociation time of 420 sec in running buffer (20 mM Tris-HCl (Tris(hydroxymethyl)-aminomethane HCl) pH 7.40, 150 mM NaCl, 5 mM MgCl2, 1 mM DTT (dithiothreitol), 0.1 mM EGTA (ethylene glycol tetraacetic acid), 0.05% Tween 20) containing 2% DMSO (dimethyl sulfoxide). Buffer injections identical to the sample injections were executed at the beginning of the successive series for the purpose of double referencing. Solvent correction cycles (eight correction points, 1.4%-2.8% DMSO) were run at the same intervals. For surface conditioning ten start-up cycles (buffer injections) were run. Data points were collected at a sample rate of 10 Hz.
Data sets were processed and analyzed using the software Biacore4000 Evaluation, version 1.0. Solvent corrected and double-referenced association and dissociation phase data were fitted to a simple 1:1 interaction model with mass transport limitations.
Measured values are indicated as KD IC50 in the Table below.

What is called IC50 is the concentration that gives 50% inhibition. By Kd is commonly meant the equilibrium constant for the complex coming apart. For `Nc1nc(NC2CC2)cc(N2CCC[C@H]2Cc2ccccc2Cl)n1` [Example 48, 6-[(S)-2-(2-Chloro-benzyl)-pyrrolidin-1-yl]-N4-cyclopropyl-pyrimidine-2,4-diamine], in assay [1], the IC50 lay within 1 to 100 nM. Besides, in assay [2], the Kd lay within 1 to 100 nM.

With `Nc1nc(NC2CC2)cc(N2CC[C@@](O)(C(F)(F)F)C2)n1` [Example 49, (S)-1-(2-Amino-6-cyclopropylamino-pyrimidin-4-yl)-3-trifluoromethyl-pyrrolidin-3-ol], the half-maximal inhibitory concentration (IC50) in assay [1] is less than 1 nM. In addition, in assay [2], the Kd lay within 1 to 100 nM.

For the compound `Nc1nc(NC2CC2)cc(N2CC[C@](O)(C(F)(F)F)C2)n1` [Example 50, (R)-1-(2-Amino-6-cyclopropylamino-pyrimidin-4-yl)-3-trifluoromethyl-pyrrolidin-3-ol], in assay [1], the IC50 fell in the range of 1 to 100 nM. The Kd in assay [2] fell in the range of 1 to 100 nM.

Regarding `Nc1nc(NC2CC2)cc(N2CCCc3ccccc32)n1` [Example 51, N4-Cyclopropyl-6-(3,4-dihydro-2H-quinolin-1-yl)-pyrimidine-2,4-diamine], the IC50 in assay [1] is less than 1 nM. The Kd in assay [2] was 1 to 100 nM.

`C[C@@]1(O)CCN(c2cc(NC3CC3)nc(N)n2)C1` [Example 52, (R)-1-(2-Amino-6-cyclopropylamino-pyrimidin-4-yl)-3-methyl-pyrrolidin-3-ol]: the IC50 in assay [1] lay within 1 to 100 nM. For the same compound, in assay [2], the Kd is 1 to 100 nM.

As to `C[C@]1(O)CCN(c2cc(NC3CC3)nc(N)n2)C1` [Example 53, (S)-1-(2-Amino-6-cyclopropylamino-pyrimidin-4-yl)-3-methyl-pyrrolidin-3-ol], the IC50 in assay [1] lay within 1 to 100 nM. In assay [2], the Kd fell in the range of 1 to 100 nM.

As for `CC1Cc2ccccc2N1c1cc(NC2CC2)nc(N)n1` (centres unmarked) [Example 58, N4-Cyclopropyl-6-(2-methyl-2,3-dihydro-indol-1-yl)-pyrimidine-2,4-diamine], in assay [1], the IC50 is 1 to 100 nM. In addition, the Kd in assay [2] fell in the range of 1 to 100 nM.

In the case of `CNc1cc(N2CC[C@H](O)C2)nc(N)n1` [Example 62, (S)-1-(2-Amino-6-methylamino-pyrimidin-4-yl)-pyrrolidin-3-ol], the IC50 in assay [1] lay within 1 to 100 nM. The Kd in assay [2] lay within 1 to 100 nM.

For the compound `Nc1nc2c(c(N3CCC(F)(F)C3)n1)CCCN2` [Example 63, 4-(3,3-Difluoro-pyrrolidin-1-yl)-5,6,7,8-tetrahydro-pyrido[2,3-d]pyrimidin-2-ylamine], in assay [1], the IC50 is less than 1 nM. The Kd in assay [2] is 1 to 100 nM.

Take `Nc1nc(NCC2CCCC2)cc(N2CCC(F)(F)C2)n1` [Example 76, N4-Cyclopentylmethyl-6-(3,3-difluoro-pyrrolidin-1-yl)-pyrimidine-2,4-diamine]: in assay [1], the 50% inhibitory concentration (IC50) lay within 1 to 100 nM. Also, the Kd in assay [2] lay in the range of 1 to 100 nM.

Regarding `COc1ccccc1CCNc1cc(N2CCC(F)(F)C2)nc(N)n1` [Example 77, 6-(3,3-Difluoro-pyrrolidin-1-yl)-N4-[2-(2-methoxy-phenyl)-ethyl]-pyrimidine-2,4-diamine], in assay [1], the IC50 lay within 1 to 100 nM. In addition, in assay [2], the Kd was 1 to 100 nM.

As for `NC(=O)[C@H]1CCN(c2nc(N)nc3c2CCCN3)C1` [Example 78, (S)-1-(2-Amino-5,6,7,8-tetrahydro-pyrido[2,3-d]pyrimidin-4-yl)-pyrrolidine-3-carboxylic acid amide-formiate], the IC50 in assay [1] is less than 1 nM. Besides, in assay [2], the Kd lay within 1 to 100 nM.

Regarding `CNc1cc(N2CCCCC2c2cc3ccccc3o2)nc(N)n1` (centres unmarked) [Example 81, 6-(2-Benzofuran-2-yl-piperidin-1-yl)-N4-methyl-pyrimidine-2,4-diamine], the IC50 in assay [1] was less than 1 nM. For the same compound, the Kd in assay [2] lay in the range of 1 to 100 nM.

Regarding `CNc1cc(N2CCCC2Cc2ccc(Cl)cc2)nc(N)n1` (centres unmarked) [Example 84, 6-[2-(4-Chloro-benzyl)-pyrrolidin-1-yl]-N4-methyl-pyrimidine-2,4-diamine], in assay [1], the IC50 was less than 1 nM. Moreover, the Kd in assay [2] lay in the range of 1 to 100 nM.

Turning to `CNc1cc(N2CCCC2Cc2cccc(Cl)c2)nc(N)n1` (centres unmarked) [Example 85, 6-[2-(3-Chloro-benzyl)-pyrrolidin-1-yl]-N4-methyl-pyrimidine-2,4-diamine], the IC50 in assay [1] was less than 1 nM. Also, in assay [2], the Kd was less than 1 nM.

`Nc1nc(NC2CC2)cc(N2C[C@H](O)CC2=O)n1` [Example 86, (R)-1-(2-Amino-6-cyclopropylamino-pyrimidin-4-yl)-4-hydroxy-pyrrolidin-2-one]: the IC50 in assay [1] was more than 100 nM. Moreover, in assay [2], the Kd is more than 100 nM.

As for `CCCCOC(=O)CC1CCCN1c1cc(NC2CC2)nc(N)n1` (centres unmarked) [Example 87, [1-(2-Amino-6-cyclopropylamino-pyrimidin-4-yl)-pyrrolidin-2-yl]-acetic acid butyl ester], the IC50 in assay [1] was in the range of 1 to 100 nM. Also, the Kd in assay [2] is 1 to 100 nM.

Take `Nc1nc(NC2CC2)cc(N2CCCC2C(=O)NCc2ccccc2Cl)n1` (centres unmarked) [Example 88, 1-(2-Amino-6-cyclopropylamino-pyrimidin-4-yl)-pyrrolidine-2-carboxylic acid 2-chloro-benzylamide]: the IC50 in assay [1] is more than 100 nM. Moreover, the dissociation constant (Kd) in assay [2] was more than 100 nM.

Broadly, the residence time is how long the partners stay bound on average. Take `CNc1cc(N2CCC[C@H]2Cc2ccccc2OC)nc(N)n1` [Example 92, 6-[(S)-2-(2-Methoxy-benzyl)-pyrrolidin-1-yl]-N4-methyl-pyrimidine-2,4-diamine]: the IC50 in assay [1] was less than 1 nM. In addition, in assay [2], the residence time was not below 10 min.

Regarding `Nc1nc(NC2CC2)cc(N2CCCC2=O)n1` [Example 94, 1-(2-Amino-6-cyclopropylamino-pyrimidin-4-yl)-pyrrolidin-2-one], the IC50 in assay [1] was more than 100 nM. Further, the Kd in assay [2] was more than 100 nM.

For `CNc1cc(N2CCCCC2Cc2ccc(OC)cc2)nc(N)n1` (centres unmarked) [Example 95, 6-[2-(4-Methoxy-benzyl)-piperidin-1-yl]-N4-methyl-pyrimidine-2,4-diamine], the IC50 in assay [1] is less than 1 nM. Also, the residence time in assay [2] was not below 10 min.

Turning to `Nc1nc(NC2CC2)cc(N2CCCC2CC(=O)O)n1` (centres unmarked) [Example 97, [1-(2-Amino-6-cyclopropylamino-pyrimidin-4-yl)-pyrrolidin-2-yl]acetic acid], the IC50 in assay [1] is 1 to 100 nM. The Kd in assay [2] was more than 100 nM.

`CNc1cc(N2CCCC2Cc2ccccc2Cl)nc(N)n1` (centres unmarked) [Example 98, 6-[2-(2-Chloro-benzyl)-pyrrolidin-1-yl]-N4-methyl-pyrimidine-2,4-diamine]: in assay [1], the IC50 was less than 1 nM. In assay [2], the Kd lay within 1 to 100 nM and the residence time was not below 10 min.

For the compound `CNc1cc(N2CCCCC2Cc2ccccc2OC)nc(N)n1` (centres unmarked) [Example 100, 6-[2-(2-Methoxy-benzyl)-piperidin-1-yl]-N4-methyl-pyrimidine-2,4-diamine], the 50% inhibitory concentration (IC50) in assay [1] was less than 1 nM. Further, in assay [2], the Kd was in the range of 1 to 100 nM and the residence time is not below 10 min.

For `CNc1cc(N2CCCCC2Cc2ccccc2Cl)nc(N)n1` (centres unmarked) [Example 105, 6-[2-(2-Chloro-benzyl)-piperidin-1-yl]-N4-methyl-pyrimidine-2,4-diamine], the IC50 in assay [1] is less than 1 nM. In addition, in assay [2], the equilibrium dissociation constant (Kd) lay in the range of 1 to 100 nM and the residence time was not below 10 min.
